{"source": "patent US20150119363A1", "about": "“METHODS OF TREATING BACTERIAL INFECTIONS” (Rampex Pharmaceuticals, Inc., priority 2012, published 2015)", "key": {"[1]": {"tested_on": "Acinetobacter baumannii AB1054 (OXA-23)", "test": "Checkerboard assay, biapenem potentiation (MPC8)", "format": "cell-based", "details": "concentration to reduce biapenem MIC 8-fold", "procedure": "(§1) The potency and spectrum of β-lactamase inhibitors was determined by assessing their antibiotic potentiation activity.\n(§2) The potentiation effect is observed by the reduction of the minimum inhibitory concentration of β-lactam antibiotics in the presence of β-lactamase inhibitors (BLIs). […] Methods for Dilution of Antimicrobial Susceptibility Tests for Bacteria That Grow Aerobically—Eighth Edition; Approved Standard. CLSI Document M07-A8, 2009). In this assay, multiple dilutions of two drugs, namely BLI and β-lactam (biapenem), are being tested, alone and in combination, at concentrations equal to, above and below their respective minimal inhibitory concentrations (MICs). BLIs are solubilized in 10% DMSO at 10 mg/mL. Stock solutions are further diluted, according to the needs of a particular assay, in Mueller Hinton Broth (MHB). Stock solution can be stored at −80° C.\n(§3) The checkerboard (CB) assay is performed in microtiter plates. Biapenem is diluted in the x axis, each column containing a single concentration of antibiotic. BLIs are diluted in the y axis, each row containing an equal concentration of BLI. The result of these manipulations is that each well of the microtiter plate contains a unique combination of concentrations of the two agents. The assay is performed in MHB with a final bacterial inoculum of 5×10^5 CFU/mL (from an early-log phase culture). Microtiter plates are incubated during 20 h at 35° C. and are read using a microtiter plate reader (Molecular Devices) at 650 nm as well as visual observation using a microtiter plate reading mirror.\n(§4) Biapenem is a carbapenem β-lactam; only selected β-lactamases confer resistance to this class of antibiotics. Among them are serine carbapemenases that belong to class A and class D. Biapenem potentiation is studied in strains expressing various carbapenemases from these classes using CB assays. […] Cyclic boronic acid derivatives were capable of reducing biapenem MICs up to 1000-fold (Table 3)."}, "[2]": {"tested_on": "Acinetobacter baumannii AB1057 (OXA-58)", "test": "Checkerboard assay, biapenem potentiation (MPC8)", "format": "cell-based", "details": "concentration to reduce biapenem MIC 8-fold", "procedure": "as §1, §2, §3, §4"}, "[3]": {"tested_on": "Klebsiella pneumoniae KP1004 (KPC-2)", "test": "Checkerboard assay, biapenem potentiation (MPC8)", "format": "cell-based", "details": "concentration to reduce biapenem MIC 8-fold", "procedure": "as §1, §2, §3, §4"}, "EC1007 KPC-3": {"tested_on": "EC1007 KPC-3", "test": "Dose titration biapenem potentiation assay (MPC1)", "format": "cell-based, Escherichia coli", "details": "biapenem 1 μg/mL", "outline": "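Growth of carbapenemase-expressing strains measured with biapenem held at a sub-inhibitory 1 μg/mL; BLI compounds titrated from a top concentration of 40 μg/mL. MPC1 is the inhibitor concentration that restores growth inhibition by biapenem.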"}, "[4]": {"tested_on": "strains expressing KPC alone or in combination with additional beta-lactamases", "test": "Checkerboard assay, Compound 5 with biapenem (summary)", "format": "cell-based", "details": "highest concentration of Compound 5 10 mg/L", "excerpt": "as §2\nas §3, with “The assay is performed in MHB with a final bacterial inoculum of 5×10^5 CFU/mL (from an early-log phase culture).” left out"}, "[5]": {"tested_on": "Escherichia coli (EC1061) NDM-1", "test": "Biapenem MIC at various concentrations of Compound 5", "format": "cell-based", "details": "EC1061 NDM-1"}, "[6]": {"tested_on": "K. pneumoniae KP1081 (NDM-1, CMY-6, SHV-11, CTX-M-15, TEM-1)", "test": "Aztreonam/Tigemonam MIC at various concentrations of BLI", "format": "cell-based", "details": "KP1081", "procedure": "MIC values for each bacterial strain were measured for each antimicrobial compound at various concentrations of each BLI."}}}
{"smiles": "O=C(O)C[C@@H]1CC[C@H](NC(=O)Cc2cccs2)B(O)O1", "note": "[Compound 5, 2-((3R,6S)-2-hydroxy-3-(2-(thiophen-2-yl)acetamido)-1,2-oxaborinan-6-yl)acetic acid]", "values": [{"measurement": "MPC8", "setting": "[1]", "value": "Z (Z = MPC8 of greater than 1 μg/mL.)"}, {"measurement": "MPC8", "setting": "[2]", "value": "Z (Z = MPC8 of greater than 1 μg/mL.)"}, {"measurement": "MPC8", "setting": "[3]", "value": "X (X = MPC8 of less than 0.16 μg/mL.)"}, {"measurement": "BPM MPC1 EC1007 KPC-3", "setting": "EC1007 KPC-3", "value": "X (X = MPC1 of less than 1 μg/mL.)"}, {"measurement": "potentiation of biapenem", "setting": "[4]", "value": "significantly potentiate biapenem"}, {"measurement": "Biapenem MIC", "setting": "[5]; Compound 5 0.31 μg/ml", "value": 0.13, "unit": "µg/mL"}, {"measurement": "Biapenem MIC", "setting": "[5]; Compound 5 0.63 μg/ml", "value": 0.13, "unit": "µg/mL"}, {"measurement": "Biapenem MIC", "setting": "[5]; Compound 5 5 μg/ml", "value": 0.125, "unit": "µg/mL"}, {"measurement": "Biapenem MIC", "setting": "[5]; Compound 5 10 μg/ml", "value": 0.06, "unit": "µg/mL"}, {"measurement": "Biapenem MIC", "setting": "[5]; Compound 5 20 μg/ml", "value": 0.06, "unit": "µg/mL"}, {"measurement": "Aztreonam MIC (μg/ml) in the presence of BLI", "setting": "[6]; Compound 5 0.31 μg/ml", "value": 256, "unit": "µg/mL"}, {"measurement": "Aztreonam MIC (μg/ml) in the presence of BLI", "setting": "[6]; Compound 5 0.63 μg/ml", "value": 128, "unit": "µg/mL"}, {"measurement": "Aztreonam MIC (μg/ml) in the presence of BLI", "setting": "[6]; Compound 5 5 μg/ml", "value": 8, "unit": "µg/mL"}, {"measurement": "Aztreonam MIC (μg/ml) in the presence of BLI", "setting": "[6]; Compound 5 10 μg/ml", "value": 4, "unit": "µg/mL"}, {"measurement": "Aztreonam MIC (μg/ml) in the presence of BLI", "setting": "[6]; Compound 5 20 μg/ml", "value": 2, "unit": "µg/mL"}]}
